# Experiment: Subacute toxicity test, 14 consecutive days
# Type: in vivo
# Details: SD rats, 10 mg/kg once a day for 14 consecutive days, in words
# Excerpt: A proper amount of the compound in Embodiment 13 and a proper amount of the compound in Embodiment 14 were weighed by a balance and respectively placed into proper glass bottles, then DMSO, Solutol HS-15 and 0.9% physiological saline (in a ratio of v: v: v = 5%: 10%: 85%) were sequentially added into the glass bottles, and vortexed and stirred, and a drug dissolution condition was continuously concerned in the stirring process until the compounds were completely dissolved/suspended. Finally, drug solutions of the compound in Embodiment 13 and the compound in Embodiment 14 with a concentration of 0.67 mg/mL were prepared for current use.
# An animal room was well ventilated, equipped with an air-conditioner, kept at a temperature of 20°C and 25°C and a humidity of 40% to 70%, and in light and dark conditions for 12 hours respectively, and the animals could eat and drink freely. SD rats with good physical signs could be selected for this experiment after being adaptively fed for at least 3 days before administration. Table 23 Source and number of experimental animals
# Any operation on the experimental animals in this experiment met the requirements of the "Regulations for the Administration of Affairs Concerning Experimental Animals" issued by the Ministry of Science and Technology of the People's Republic of China. In this experiment, a solvent control group, an administration group of compound in Embodiment 13 and an administration group of compound in Embodiment 14 were set up. Administration dosages of the administration group of compound in Embodiment 13 and the administration group of compound in Embodiment 14 were (10 mg/kg) once a day for 14 consecutive days, while the same amount of blank solvent was given to the blank control group, and administration volumes were all 15 mL/kg. After each administration, symptoms and degrees of toxic reaction of the animals were observed. Recovery observation was carried out for 7 days after the last administration. […]
# During the experiment, experimenters and veterinarians should observe physical signs and health conditions of the experimental animals continuously. Any abnormal manifestations of the animals, such as pain, depression and decreased activity should be recorded in original records of the experiment. […]
# During the experiment, all animals were observed beside cages at least twice a day, and observed continuously for 2 hours after the drug administration. During the drug administration, if the animals had serious side effects or died, observation results should be recorded in a corresponding form. […]
# The animals should be weighed before daily drug administration for 14 consecutive days, and the weights were recorded in a corresponding form. Food intakes of the experimental animals were detected during the experiment. […]
smiles,measurement,setting,value
"O=C(O)CNC(=O)c1c(O)cc(C2CCc3ccccc3C2)n2ncnc12 (single isomer, unassigned) [Compound in Embodiment 13, [(7-hydroxy-5-(1,2,3,4-tetrahydronaphthalene-2-yl)-[1,2,4]triazolo[1,5-a]pyridine-8-carbonyl)amino]acetic acid]",toxicities,compared with Enarodustat,lower than that of Enarodustat
same,gastrointestinal findings,,"no obvious gastrointestinal necrosis, and bleeding spots or flatulence in a black stomach part"

# Source: patent EP4578855A1, “PROLYL HYDROXYLASE INHIBITOR AND USE THEREOF” (Suzhong Pharmaceutical Group Co., Ltd., priority 2022, dated 2024)
